Experimental data as given in the NIST ThermoML archive (doi:10.1021/je800571y).
± gives the expanded uncertainty stated by the source.

Experiment: xn = mol fraction of the nth substance listed
Details: 101 kPa, Liquid

CCC(C)=O [butanone] + CC(C)O
Details | mass density, 293.15 K [kg/m3] | mass density, 298.15 K [kg/m3] | mass density, 303.15 K [kg/m3] | mass density, 308.15 K [kg/m3] | mass density, 313.15 K [kg/m3] | viscosity, 293.15 K [mPa·s] | viscosity, 298.15 K [mPa·s] | viscosity, 303.15 K [mPa·s] | viscosity, 308.15 K [mPa·s] | viscosity, 313.15 K [mPa·s]
x1 = 0.0562 | 786.4 ± 0.98 | 782.34 ± 0.98 | 778.9 ± 1.1 | 773.52 ± 1.1 | 769.21 ± 1.1 | – | – | – | – | –
x1 = 0.0595 | – | – | – | – | – | 1.816 ± 0.34 | 1.596 ± 0.3 | 1.413 ± 0.27 | 1.272 ± 0.24 | 1.165 ± 0.23
x1 = 0.1136 | 787.47 ± 0.98 | 783.31 ± 0.99 | 779.85 ± 1.1 | 774.58 ± 1.1 | 770.17 ± 1.1 | – | – | – | – | –
x1 = 0.1282 | – | – | – | – | – | 1.504 ± 0.28 | 1.362 ± 0.26 | 1.207 ± 0.23 | 1.095 ± 0.21 | 1.003 ± 0.2
x1 = 0.1724 | 788.54 ± 0.99 | 784.36 ± 1 | 780.81 ± 1.1 | 775.58 ± 1.1 | 771.13 ± 1.1 | 1.294 ± 0.25 | 1.185 ± 0.23 | 1.046 ± 0.21 | 0.9637 ± 0.19 | 0.8693 ± 0.17
x1 = 0.2326 | 789.67 ± 0.99 | 785.46 ± 1 | 781.82 ± 1.1 | 776.64 ± 1.1 | 772.12 ± 1.1 | 1.103 ± 0.21 | 0.9992 ± 0.2 | 0.9083 ± 0.18 | 0.8366 ± 0.17 | 0.774 ± 0.16
x1 = 0.2941 | 790.83 ± 1 | 786.59 ± 1 | 782.85 ± 1.1 | 777.7 ± 1.1 | 773.13 ± 1.1 | 0.9668 ± 0.19 | 0.8812 ± 0.18 | 0.8021 ± 0.16 | 0.7488 ± 0.15 | 0.6929 ± 0.14
x1 = 0.3571 | 792.05 ± 1 | 787.74 ± 1 | 783.91 ± 1.1 | 778.8 ± 1.1 | 774.16 ± 1.2 | – | – | – | – | –
x1 = 0.3572 | – | – | – | – | – | 0.852 ± 0.17 | 0.7675 ± 0.16 | 0.7154 ± 0.15 | 0.6663 ± 0.14 | 0.6169 ± 0.13
x1 = 0.4217 | 793.29 ± 1 | 788.95 ± 1 | 785.01 ± 1.1 | 779.92 ± 1.1 | 775.21 ± 1.2 | 0.7693 ± 0.16 | 0.6949 ± 0.14 | 0.6406 ± 0.14 | 0.5987 ± 0.13 | 0.5567 ± 0.12
x1 = 0.4878 | 794.6 ± 1 | 790.18 ± 1 | 786.14 ± 1.1 | 781.07 ± 1.1 | 776.27 ± 1.2 | 0.7113 ± 0.15 | 0.6289 ± 0.13 | 0.5816 ± 0.13 | 0.5428 ± 0.12 | 0.4753 ± 0.11
x1 = 0.5555 | 795.96 ± 1 | 791.44 ± 1 | 787.29 ± 1.1 | 782.24 ± 1.2 | 777.37 ± 1.2 | – | – | – | – | –
x1 = 0.5556 | – | – | – | – | – | 0.6609 ± 0.14 | 0.5801 ± 0.13 | 0.5303 ± 0.12 | 0.4834 ± 0.11 | 0.4406 ± 0.1
x1 = 0.625 | 797.35 ± 1 | 792.74 ± 1.1 | 788.49 ± 1.1 | 783.44 ± 1.2 | 778.48 ± 1.2 | 0.6072 ± 0.13 | 0.5071 ± 0.11 | 0.4848 ± 0.11 | 0.4314 ± 0.1 | 0.3846 ± 0.091
x1 = 0.6962 | 798.79 ± 1.1 | 794.08 ± 1.1 | 789.7 ± 1.1 | 784.66 ± 1.2 | 779.61 ± 1.2 | 0.5511 ± 0.12 | 0.4516 ± 0.1 | 0.4355 ± 0.1 | 0.3751 ± 0.09 | 0.3302 ± 0.082
x1 = 0.7692 | 800.26 ± 1.1 | 795.45 ± 1.1 | 790.95 ± 1.1 | 785.91 ± 1.2 | 780.76 ± 1.2 | – | – | – | – | –
x1 = 0.7693 | – | – | – | – | – | 0.5144 ± 0.11 | 0.3852 ± 0.091 | 0.3866 ± 0.092 | 0.3345 ± 0.083 | 0.316 ± 0.08
x1 = 0.8442 | 801.6 ± 1.1 | 796.86 ± 1.1 | 792.21 ± 1.1 | 787.18 ± 1.2 | 781.93 ± 1.2 | 0.4675 ± 0.11 | 0.353 ± 0.086 | 0.3359 ± 0.083 | 0.306 ± 0.078 | 0.286 ± 0.074
x1 = 0.9211 | 803.3 ± 1.1 | 798.3 ± 1.1 | 793.51 ± 1.1 | 788.48 ± 1.2 | 783.12 ± 1.2 | 0.4293 ± 0.099 | 0.3262 ± 0.081 | 0.2972 ± 0.076 | 0.2758 ± 0.073 | 0.2706 ± 0.072
x1 = 1 | 804.92 ± 1.1 | 799.7 ± 1.1 | 794.81 ± 1.1 | 789.78 ± 1.2 | 784.32 ± 1.2 | – | 0.2828 ± 0.074 | 0.2666 ± 0.071 | 0.2601 ± 0.07 | 0.2545 ± 0.069
